Experimental data: the NIST ThermoML archive (doi:10.1016/j.jct.2015.11.023)
Numbers after ± are expanded uncertainties.

Key:
[1] = refractive index (Na D-line) (dimensionless); wn = mass fraction of the nth substance listed; conditions: 100 kPa, Liquid, Standard Abbe refractometry
[2] = wn = mass fraction of the nth substance listed; conditions: for surface tension liquid-gas: Maximal bubble pressure; for mass density: 100 kPa, Liquid, Vibrating tube method

CCCC[n+]1ccccc1.N#C[N-]C#N [1-butylpyridinium dicyanamide] + O
Conditions	mass density [kg/m3]	refractive index	surface tension liquid-gas [mN/m]
[1], 303.15 K, w2 = 0.00176	–	1.5323 ± 0.003	–
[1], 303.15 K, w2 = 0.00319	–	1.5321 ± 0.003	–
[1], 303.15 K, w2 = 0.00477	–	1.5319 ± 0.003	–
[1], 303.15 K, w2 = 0.00627	–	1.5317 ± 0.003	–
[1], 303.15 K, w2 = 0.0078	–	1.5315 ± 0.003	–
[1], 308.15 K, w2 = 0.00176	–	1.5306 ± 0.003	–
[1], 308.15 K, w2 = 0.00319	–	1.5303 ± 0.003	–
[1], 308.15 K, w2 = 0.00477	–	1.5301 ± 0.003	–
[1], 308.15 K, w2 = 0.00627	–	1.5298 ± 0.003	–
[1], 308.15 K, w2 = 0.0078	–	1.5296 ± 0.003	–
[1], 313.15 K, w2 = 0.00176	–	1.5283 ± 0.003	–
[1], 313.15 K, w2 = 0.00319	–	1.5281 ± 0.003	–
[1], 313.15 K, w2 = 0.00477	–	1.5279 ± 0.003	–
[1], 313.15 K, w2 = 0.00627	–	1.5277 ± 0.003	–
[1], 313.15 K, w2 = 0.0078	–	1.5275 ± 0.003	–
[1], 318.15 K, w2 = 0.00176	–	1.5267 ± 0.003	–
[1], 318.15 K, w2 = 0.00319	–	1.5265 ± 0.003	–
[1], 318.15 K, w2 = 0.00477	–	1.5262 ± 0.003	–
[1], 318.15 K, w2 = 0.00627	–	1.526 ± 0.003	–
[1], 318.15 K, w2 = 0.0078	–	1.5258 ± 0.003	–
[1], 323.15 K, w2 = 0.00176	–	1.525 ± 0.003	–
[1], 323.15 K, w2 = 0.00319	–	1.5248 ± 0.003	–
[1], 323.15 K, w2 = 0.00477	–	1.5245 ± 0.003	–
[1], 323.15 K, w2 = 0.00627	–	1.5243 ± 0.003	–
[1], 323.15 K, w2 = 0.0078	–	1.5241 ± 0.003	–
[1], 328.15 K, w2 = 0.00176	–	1.5234 ± 0.003	–
[1], 328.15 K, w2 = 0.00319	–	1.5232 ± 0.003	–
[1], 328.15 K, w2 = 0.00477	–	1.523 ± 0.003	–
[1], 328.15 K, w2 = 0.00627	–	1.5227 ± 0.003	–
[1], 328.15 K, w2 = 0.0078	–	1.5225 ± 0.003	–
[1], 333.15 K, w2 = 0.00176	–	1.5214 ± 0.003	–
[1], 333.15 K, w2 = 0.00319	–	1.5212 ± 0.003	–
[1], 333.15 K, w2 = 0.00477	–	1.5209 ± 0.003	–
[1], 333.15 K, w2 = 0.00627	–	1.5207 ± 0.003	–
[1], 333.15 K, w2 = 0.0078	–	1.5204 ± 0.003	–
[1], 338.15 K, w2 = 0.00176	–	1.5199 ± 0.003	–
[1], 338.15 K, w2 = 0.00319	–	1.5197 ± 0.003	–
[1], 338.15 K, w2 = 0.00477	–	1.5194 ± 0.003	–
[1], 338.15 K, w2 = 0.00627	–	1.5192 ± 0.003	–
[1], 338.15 K, w2 = 0.0078	–	1.5189 ± 0.003	–
[2], 303.15 K, w2 = 0.00123	1065.65 ± 2	–	–
[2], 303.15 K, w2 = 0.00176	–	–	55.8 ± 0.5
[2], 303.15 K, w2 = 0.00269	1065.52 ± 2	–	–
[2], 303.15 K, w2 = 0.0033	–	–	56.2 ± 0.5
[2], 303.15 K, w2 = 0.00417	1065.37 ± 2	–	–
[2], 303.15 K, w2 = 0.00478	–	–	56.5 ± 0.5
[2], 303.15 K, w2 = 0.00567	1065.24 ± 2	–	–
[2], 303.15 K, w2 = 0.00628	–	–	56.8 ± 0.5
[2], 303.15 K, w2 = 0.00714	1065.12 ± 2	–	–
[2], 303.15 K, w2 = 0.0078	–	–	57.1 ± 0.5
[2], 308.15 K, w2 = 0.00123	1062.58 ± 2	–	–
[2], 308.15 K, w2 = 0.00176	–	–	55.5 ± 0.5
[2], 308.15 K, w2 = 0.00269	1062.45 ± 2	–	–
[2], 308.15 K, w2 = 0.0033	–	–	55.9 ± 0.5
[2], 308.15 K, w2 = 0.00417	1062.32 ± 2	–	–
[2], 308.15 K, w2 = 0.00478	–	–	56.2 ± 0.5
[2], 308.15 K, w2 = 0.00567	1062.16 ± 2	–	–
[2], 308.15 K, w2 = 0.00628	–	–	56.5 ± 0.5
[2], 308.15 K, w2 = 0.00714	1062.04 ± 2	–	–
[2], 308.15 K, w2 = 0.0078	–	–	56.8 ± 0.5
[2], 313.15 K, w2 = 0.00123	1059.54 ± 2	–	–
[2], 313.15 K, w2 = 0.00176	–	–	55.2 ± 0.5
[2], 313.15 K, w2 = 0.00269	1059.41 ± 2	–	–
[2], 313.15 K, w2 = 0.0033	–	–	55.6 ± 0.5
[2], 313.15 K, w2 = 0.00417	1059.23 ± 2	–	–
[2], 313.15 K, w2 = 0.00478	–	–	55.9 ± 0.5
[2], 313.15 K, w2 = 0.00567	1059.11 ± 2	–	–
[2], 313.15 K, w2 = 0.00628	–	–	56.2 ± 0.5
[2], 313.15 K, w2 = 0.00714	1058.97 ± 2	–	–
[2], 313.15 K, w2 = 0.0078	–	–	56.5 ± 0.5
[2], 318.15 K, w2 = 0.00123	1056.51 ± 2	–	–
[2], 318.15 K, w2 = 0.00176	–	–	54.9 ± 0.5
[2], 318.15 K, w2 = 0.00269	1056.38 ± 2	–	–
[2], 318.15 K, w2 = 0.0033	–	–	55.2 ± 0.5
[2], 318.15 K, w2 = 0.00417	1056.24 ± 2	–	–
[2], 318.15 K, w2 = 0.00478	–	–	55.5 ± 0.5
[2], 318.15 K, w2 = 0.00567	1056.07 ± 2	–	–
[2], 318.15 K, w2 = 0.00628	–	–	55.8 ± 0.5
[2], 318.15 K, w2 = 0.00714	1055.94 ± 2	–	–
[2], 318.15 K, w2 = 0.0078	–	–	56.2 ± 0.5
[2], 323.15 K, w2 = 0.00123	1053.5 ± 2	–	–
[2], 323.15 K, w2 = 0.00176	–	–	54.6 ± 0.5
[2], 323.15 K, w2 = 0.00269	1053.36 ± 2	–	–
[2], 323.15 K, w2 = 0.0033	–	–	54.9 ± 0.5
[2], 323.15 K, w2 = 0.00417	1053.23 ± 2	–	–
[2], 323.15 K, w2 = 0.00478	–	–	55.2 ± 0.5
[2], 323.15 K, w2 = 0.00567	1053.04 ± 2	–	–
[2], 323.15 K, w2 = 0.00628	–	–	55.5 ± 0.5
[2], 323.15 K, w2 = 0.00714	1052.91 ± 2	–	–
[2], 323.15 K, w2 = 0.0078	–	–	55.8 ± 0.5
[2], 328.15 K, w2 = 0.00123	1050.5 ± 2	–	–
[2], 328.15 K, w2 = 0.00176	–	–	54.3 ± 0.5
[2], 328.15 K, w2 = 0.00269	1050.36 ± 2	–	–
[2], 328.15 K, w2 = 0.0033	–	–	54.6 ± 0.5
[2], 328.15 K, w2 = 0.00417	1050.22 ± 2	–	–
[2], 328.15 K, w2 = 0.00478	–	–	54.9 ± 0.5
[2], 328.15 K, w2 = 0.00567	1050.05 ± 2	–	–
[2], 328.15 K, w2 = 0.00628	–	–	55.2 ± 0.5
[2], 328.15 K, w2 = 0.00714	1049.92 ± 2	–	–
[2], 328.15 K, w2 = 0.0078	–	–	55.5 ± 0.5
[2], 333.15 K, w2 = 0.00123	1047.53 ± 2	–	–
[2], 333.15 K, w2 = 0.00176	–	–	54 ± 0.5
[2], 333.15 K, w2 = 0.00269	1047.4 ± 2	–	–
[2], 333.15 K, w2 = 0.0033	–	–	54.3 ± 0.5
[2], 333.15 K, w2 = 0.00417	1047.21 ± 2	–	–
[2], 333.15 K, w2 = 0.00478	–	–	54.6 ± 0.5
[2], 333.15 K, w2 = 0.00567	1047.07 ± 2	–	–
[2], 333.15 K, w2 = 0.00628	–	–	54.9 ± 0.5
[2], 333.15 K, w2 = 0.00714	1046.94 ± 2	–	–
[2], 333.15 K, w2 = 0.0078	–	–	55.2 ± 0.5
[2], 338.15 K, w2 = 0.00123	1044.55 ± 2	–	–
[2], 338.15 K, w2 = 0.00176	–	–	53.7 ± 0.5
[2], 338.15 K, w2 = 0.00269	1044.42 ± 2	–	–
[2], 338.15 K, w2 = 0.0033	–	–	54 ± 0.5
[2], 338.15 K, w2 = 0.00417	1044.27 ± 2	–	–
[2], 338.15 K, w2 = 0.00478	–	–	54.3 ± 0.5
[2], 338.15 K, w2 = 0.00567	1044.09 ± 2	–	–
[2], 338.15 K, w2 = 0.00628	–	–	54.5 ± 0.5
[2], 338.15 K, w2 = 0.00714	1043.94 ± 2	–	–
[2], 338.15 K, w2 = 0.0078	–	–	54.8 ± 0.5
